Here are results for 61 molecules from patent publication US9200008B2 (ASKA PHARMACEUTICAL CO., LTD., priority 2010, dated 2015).

The subject of the assay is Human prostate cancer cell lines (PC-3 cells). In words: Measurement of cell death-inducing activity (Test Example 1). The class given is cell-based. Conditions: PC-3, 48 h, 48 hours after addition, tested at 10, 1, 0.1, 0.025 and 0.00625 μmol/L, qualitative evaluation of 10 fields, read-out: Concentration showing the cell death-inducing activity (cell death-inducing rate not less than 40%). In a few lines:
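PC-3 cells seeded at 1×10^5 cells/well and grown 48 h at 37 °C, 5% CO2, then exposed to compound at 10, 1, 0.1, 0.025 and 0.00625 μmol/L (DMSO control) for a further 48 h. Activity was called where cell death-inducing rate was not less than 40%.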

The structures appear in SMILES notation.

For the molecule `CCn1nc(-c2ccc(C)cc2OC)cc1NC(=O)OCc1ccc2c(c1)nc1n2CCCC1` [Example 9-270], the minimal effective concentration is 0.1 µM.
On to `Cn1nc(-c2ccc(Cl)cc2Cl)cc1NC(=O)OCc1ccc2c(c1)ncn2C` [Example 9-207], for which the minimal effective concentration was found to be 0.025 µM.
Under `CCc1nc(-c2ccc(Cl)cc2OC)sc1NC(=O)OCc1ccc2c(c1)nc(C)n2C` [Example 9-373] stands 0.025 µM.
`COc1ccc(COCC(=O)c2sc(-c3ccc(C)cc3C)nc2C)cc1` [Example 31-1, 1-[2-(2,4-Dimethylphenyl)-4-methylthiazol-5-yl]-2-(4-methoxybenzyloxy)ethanone]: the minimal effective concentration stood at 10 µM.
In the case of `COc1cc(Cl)ccc1-c1cc(C(=O)N/N=C/c2cc(C)c(O)c(C)c2)[nH]n1` [Example 22-9], the minimal effective concentration came out at 0.1 µM.
For the molecule `CCn1nc(-c2ccccc2OC)cc1NC(=O)OCc1ccc2c(c1)nc1n2CCCC1` [Example 9-264], the minimal effective concentration turned out to be 1 µM.
For `COc1ccccc1-c1ncc(COC(=O)Nc2ccc3c(c2)ncn3C)s1` [Example 13-66], the minimal effective concentration is 10 µM.
Turning to `Cc1cc(Cl)ccc1-c1nc(C)c(NC(=O)OCc2ccc3nn(C)cc3c2)s1` [Example 9-150], the minimal effective concentration was 0.025 µM.
Under `Cc1cc(F)ccc1-c1nc(C)c(NC(=O)OCc2ccc3c(c2)nc2n3CCOC2)s1` [Example 9-97] stands 0.025 µM.
Under `Cn1nc(NC(=O)OCc2ccc3c(c2)ncn3C)cc1-c1ccccc1` [Example 9-306] stands 10 µM; under `CCn1cnc2cc(COC(=O)Nc3cc(-c4ccccc4C(F)(F)F)nn3C)ccc21` [Example 9-212], 10 µM.
Under `COc1ccc(-c2nc(C)c(C(=O)N/N=C/c3ccc(OC)c(O)c3)s2)cc1` [Example 23-103] stands 10 µM.
Turning to `CCn1nc(-c2ccc(C)cc2OC)cc1COC(=O)Nc1ccc2c(cnn2C)c1` [Example 13-130], the minimal effective concentration was 1 µM.
As for `COc1cc(C)ccc1-c1nc(C)c(NC(=O)OCc2ccc3c(c2)ncn3C)s1` [Example 9-40], the figure is 0.00625 µM.
Regarding `Cc1ccc(-c2cc(NC(=O)OC(C)c3ccc4c(c3)ncn4C)n(C)n2)c(C)c1` (stereo not shown) [Example 9-339], the minimal effective concentration was 10 µM.
For the molecule `COc1cc(Cl)ccc1-c1cc(C(=O)N/N=C/c2cc(C)c(O)c(C)c2)n(C)c1` [Example 23-169, 4-(4-Chloro-2-methoxyphenyl)-1-methyl-1H-pyrrole-2-carboxylic acid (4-hydroxy-3,5-dimethylbenzylidene)hydrazide], the minimal effective concentration amounted to 10 µM.
`COc1ccccc1-c1cc(COC(=O)Nc2ccc3c(c2)nc2n3CCCC2)n(C)n1` [Example 13-114]: the minimal effective concentration was 0.1 µM.
Consider `Cc1cc(Cl)ccc1-c1nc(C)c(NC(=O)OCc2ccc3c(c2)ncn3C)s1` [Example 9-49], for which the minimal effective concentration worked out at 0.00625 µM.
As to `COc1ccc(CN(C)NC(=O)c2sc(-c3ccc(Cl)cc3OC)nc2C)cc1OC` [Example 16-16], the minimal effective concentration came to 1 µM.
In the case of `CCCc1nc(-c2ccc(C)cc2C)sc1NC(=O)OCc1ccc2c(c1)ncn2C` [Example 9-184], the minimal effective concentration was 1 µM.
As for `COc1ccc(CN(C)NC(=O)c2sc(-c3ccccc3OC)nc2C)cc1` [Example 16-4], the figure is 1 µM; as for `COc1ccc(/C=N/NC(=O)c2sc(-c3ncccc3C)nc2C)cc1O` [Example 23-26], 1 µM.
Regarding `CCn1nnc2cc(COC(=O)Nc3sc(-c4ccc(F)cc4OC)nc3C)ccc21` [Example 9-23], the minimal effective concentration amounted to 0.025 µM.
As to `COc1ccccc1-c1cc(COC(=O)Nc2ccc3c(c2)ncn3C)n(C)n1` [Example 13-76], the minimal effective concentration worked out at 0.025 µM.
As for `COc1cc(Cl)ccc1-c1nc(C)c(NC(=O)OCc2ccc3c(ccn3C)c2)s1` [Example 9-30], the minimal effective concentration amounted to 1 µM.
Consider `CCn1nc(-c2ccc(C)cc2C)cc1NC(=O)OCc1ccc2c(cnn2C)c1` [Example 9-286], for which the minimal effective concentration was determined as 0.1 µM.
For the molecule `COc1cc(Cl)ccc1-c1nc(C)c(C(=O)N/N=C/c2cccc3c2ccn3C)s1` [Example 23-95], the minimal effective concentration is 0.1 µM.
For the molecule `CCn1c(C)nc2cc(COC(=O)Nc3sc(-c4ccc(C)cc4OC)nc3C)ccc21` [Example 9-87], the minimal effective concentration is 0.025 µM.
As for `CCn1cnc2cc(COC(=O)Nc3cnc(-c4ccc(Cl)cc4OC)s3)ccc21` [Example 9-177], the figure is 0.1 µM; as for `COc1cc(C)ccc1-c1cc(NC(=O)OCc2ccc3c(c2)nc2n3CCCC2)n(C)n1` [Example 9-269], 0.1 µM.
Under `CCn1nc(-c2ccc(Cl)cc2OC)cc1NC(=O)OCc1ccc2c(c1)ncn2CC` [Example 9-224] stands 0.00625 µM; under `COc1ccc(CN(C)NC(=O)c2sc(-c3ccc(Cl)cc3OC)nc2C)cc1O` [Example 16-24], 0.1 µM; under `COc1ccc(/C=N/NC(=O)c2sc(-c3ccccc3OC)nc2C)c(O)c1` [Example 23-86], 10 µM.
As for `Cc1cc(Cl)ccc1-c1nc(C)c(NC(=O)OCc2ccc3c(c2)nc2n3CCSC2)s1` [Example 40-3, [2-(4-Chloro-2-methylphenyl)-4-methylthiazol-5-yl]carbamic acid 3,4-dihydro-1H-2-thia-4a,9-diazafluoren-7-ylmethyl ester], the figure is 0.1 µM; as for `COc1cc(Cl)ccc1-c1nc(C)c(NC(=O)OCc2ccc3c(c2)nc2n3CCC(O)C2)s1` (stereo not shown) [Example 9-343], 0.1 µM.
Take `CCCn1cnc2cc(COC(=O)Nc3sc(-c4ccccc4OC)nc3C)ccc21` [Example 9-66]: the minimal effective concentration came to 1 µM.
As for `CCCn1cnc2cc(COC(=O)Nc3sc(-c4ccc(Cl)cc4OC)nc3C)ccc21` [Example 9-67], the figure is 0.025 µM.
Under `CCc1nc2cc(COC(=O)Nc3sc(-c4ccc(C)cc4C)nc3C)ccc2n1C` [Example 9-83] stands 0.1 µM.
With `CCn1ncc2cc(COC(=O)Nc3cnc(-c4ccccc4OC)s3)ccc21` [Example 9-179], the minimal effective concentration was 10 µM.
Consider `Cc1ccc(-c2cc(NC(=O)OCc3ccc4c(c3)nc3n4CCOC3)n(C)n2)c(C)c1` [Example 9-251], for which the minimal effective concentration stood at 0.025 µM.
In the case of `CCn1nc(-c2ccccc2OC)cc1NC(=O)OCc1ccc2c(c1)ncn2C` [Example 9-214], the minimal effective concentration is 0.1 µM.
For the molecule `COc1cc(F)ccc1-c1cc(COC(=O)Nc2ccc3c(c2)nc2n3CCCC2)n(C)n1` [Example 13-116], the minimal effective concentration was 0.025 µM.
In the case of `O=C(N/N=C/c1ccc(O)c(F)c1)c1cc(-c2ccc(Cl)cc2Cl)n[nH]1` [Example 21-18], the minimal effective concentration amounted to 10 µM.
Turning to `COc1cc(C)ccc1-c1nc(C)c(NC(=O)OCc2ccc3c(c2)nc2n3CCNC2)s1` [Example 39-1, [2-(2-Methoxy-4-methylphenyl)-4-methylthiazol-5-yl]carbamic acid 1,2,3,4-tetrahydrobenzo[4,5]imidazo[1,2-a]pyrazin-8-ylmethyl ester], the minimal effective concentration worked out at 0.1 µM.
Turning to `COc1ccc(CN(C)NC(=O)c2sc(-c3ccc(Cl)cc3OC)nc2C)cc1C` [Example 16-23], the minimal effective concentration amounted to 1 µM.
As for `Cc1nc(-c2ccc(Cl)cc2)sc1C(=O)N/N=C/c1ccc(O)c2ccccc12` [Example 23-110], the figure is 1 µM; as for `COc1ccc(/C=N/NC(=O)c2sc(-c3ccccc3)nc2C)cc1O` [Example 23-53], 0.1 µM.
Take `CCn1cc2cc(COC(=O)Nc3sc(-c4ccccc4OC)nc3C)ccc2n1` [Example 9-152]: the minimal effective concentration was 0.1 µM.
As for `COc1ccc(CN(C)NC(=O)c2sc(-c3ccc(Cl)cc3C)nc2C)cc1` [Example 16-6], the minimal effective concentration was found to be 0.1 µM.
As to `COc1ccccc1-c1nc(C)c(COC(=O)Nc2ccc3c(c2)nc2n3CCOC2)s1` [Example 13-22], the minimal effective concentration was found to be 10 µM.
With `CCc1nc(-c2ccc(F)cc2OC)sc1NC(=O)OCc1ccc2c(c1)nc1n2CCOC1` [Example 9-357], the minimal effective concentration is 0.025 µM.
As for `COc1ccc(/C=N/NC(=O)c2sc(-c3nccc4ccccc34)nc2C)cc1O` [Example 23-27], the figure is 10 µM; as for `COc1ccc(/C=N/NC(=O)c2sc(-c3ccc(Cl)cc3)nc2C)cc1OC` [Example 23-42], 10 µM; as for `COc1ccc(CN(C)NC(=O)c2sc(-c3ccc(Cl)cc3C)nc2C)cc1OC` [Example 16-17], 1 µM.
For `COc1cc(C)ccc1-c1cc(COC(=O)Nc2ccc3c(c2)nc2n3CCCC2)sn1` [Example 47-6], the minimal effective concentration amounted to 0.025 µM.
Turning to `Cc1cc(/C=N/NC(=O)c2cc(-c3ccccn3)ns2)cc(C)c1O` [Example 27-12], the minimal effective concentration came to 1 µM.
`Cc1nc(-c2ccc(F)cc2Cl)sc1NC(=O)OCc1ccc2c(c1)ncn2C` [Example 9-47]: the minimal effective concentration was determined as 0.025 µM.
In the case of `COc1ccc(CN(C)NC(=O)c2cc(-c3ccc(Cl)cc3OC)n[nH]2)cc1` [Example 18-1, 5-(4-Chloro-2-methoxyphenyl)-2H-pyrazole-3-carboxylic acid N′-(4-methoxybenzyl)-N′-methyl hydrazide], the minimal effective concentration was 1 µM.
Take `Cc1ccc(-c2cc(COC(=O)Nc3ccc4c(c3)nc3n4CCC3)n(C)n2)c(C)c1` [Example 13-110]: the minimal effective concentration came to 0.00625 µM.
On to `Cn1nc2c(c1NC(=O)OCc1ccc3c(c1)ncn3C)COc1ccccc1-2` [Example 9-320], for which the minimal effective concentration worked out at 10 µM.
As to `COc1ccc(/C=N/NC(=O)c2sc(-c3ccc(Cl)cc3)nc2C)cc1O` [Example 23-7], the minimal effective concentration worked out at 0.1 µM.
